Laboratory results reported in PubChem BioAssay (NCI).
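Assay format: 96-well plates, 48-hour exposure. GI50 = concentration required for 50% inhibition of growth. TGI denotes the concentration required for complete inhibition of growth.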

How the values were obtained:
Test in all cases: NCI-60 cell line screen, 48 h
RXF 393 renal = test system: RXF 393 renal
SNB-19 CNS = test system: SNB-19 CNS
HL-60(TB) leukemia = test system: HL-60(TB) leukemia
OVCAR-8 ovarian = test system: OVCAR-8 ovarian
HCT-15 colon = test system: HCT-15 colon
M14 melanoma = test system: M14 melanoma
SN12C renal = test system: SN12C renal
A549 NSCLC = test system: A549 NSCLC
A498 renal = test system: A498 renal
SW-620 colon = test system: SW-620 colon

CCN1C(=O)N(CC)C2C1NN=c1s/c(=C\c3ccc([N+](=O)[O-])cc3)c(=O)n12 (centres undefined)
GI50 (RXF 393 renal): 0.451 µM
GI50 (SNB-19 CNS): 0.683 µM
TGI (SNB-19 CNS): > 84.3 µM
GI50 (HL-60(TB) leukemia): 0.31 µM
TGI (HL-60(TB) leukemia): 1.12 µM
GI50 (OVCAR-8 ovarian): 0.885 µM
TGI (OVCAR-8 ovarian): > 91.1 µM
GI50 (HCT-15 colon): 0.394 µM
TGI (HCT-15 colon): > 100 µM
GI50 (M14 melanoma): 0.401 µM
TGI (M14 melanoma): > 43 µM
GI50 (SN12C renal): 0.677 µM
TGI (SN12C renal): > 64.4 µM
GI50 (A549 NSCLC): 0.681 µM
TGI (A549 NSCLC): > 100 µM
GI50 (A498 renal): 0.172 µM
TGI (A498 renal): 0.704 µM
GI50 (SW-620 colon): 0.379 µM
TGI (SW-620 colon): > 100 µM

Cn1cc(-c2csc(-c3cn(C)c4ncccc34)n2)c2ccccc21
GI50 (RXF 393 renal): 0.299 µM
TGI (RXF 393 renal): 2.96 µM
GI50 (SNB-19 CNS): 0.574 µM
TGI (SNB-19 CNS): 27 µM
GI50 (HL-60(TB) leukemia): 0.283 µM
TGI (HL-60(TB) leukemia): 18.8 µM
GI50 (OVCAR-8 ovarian): 0.666 µM
TGI (OVCAR-8 ovarian): 22.7 µM
GI50 (HCT-15 colon): 0.23 µM
TGI (HCT-15 colon): > 100 µM
GI50 (M14 melanoma): 0.256 µM
TGI (M14 melanoma): > 41.4 µM
GI50 (SN12C renal): 3.07 µM
TGI (SN12C renal): > 100 µM
GI50 (A549 NSCLC): 0.634 µM
TGI (A549 NSCLC): 23.8 µM
GI50 (A498 renal): 0.496 µM
TGI (A498 renal): 8.65 µM
GI50 (SW-620 colon): 0.26 µM
TGI (SW-620 colon): > 100 µM

O=C(CN1c2ccccc2Sc2ccccc21)n1cnc2ccccc21
TGI (RXF 393 renal): > 100 µM
TGI (SNB-19 CNS): > 100 µM
TGI (HL-60(TB) leukemia): > 100 µM
TGI (OVCAR-8 ovarian): > 100 µM
TGI (HCT-15 colon): > 100 µM
TGI (M14 melanoma): > 100 µM
TGI (SN12C renal): > 100 µM
TGI (A549 NSCLC): > 100 µM
TGI (A498 renal): > 100 µM
TGI (SW-620 colon): > 100 µM

COc1cc2c(cc1OCCCN1CCN(CCCOc3cc4c(cc3OC)C(=O)C3CCC[C@H]3C=N4)CC1)N=C[C@@H]1CCCC1C2=O (some centres undefined)
GI50 (RXF 393 renal): 3 µM
TGI (RXF 393 renal): 17.5 µM
GI50 (SNB-19 CNS): 23.7 µM
TGI (SNB-19 CNS): > 100 µM
GI50 (HL-60(TB) leukemia): 1.51 µM
TGI (HL-60(TB) leukemia): 4.1 µM
GI50 (OVCAR-8 ovarian): 11.6 µM
TGI (OVCAR-8 ovarian): > 52.3 µM
GI50 (HCT-15 colon): 53.9 µM
TGI (HCT-15 colon): > 100 µM
GI50 (M14 melanoma): 6.25 µM
TGI (M14 melanoma): 22.7 µM
GI50 (SN12C renal): 10.4 µM
TGI (SN12C renal): > 100 µM
GI50 (A549 NSCLC): 35.8 µM
TGI (A549 NSCLC): > 100 µM
GI50 (A498 renal): 2.17 µM
TGI (A498 renal): 7.49 µM
GI50 (SW-620 colon): 1.19 µM
TGI (SW-620 colon): > 35 µM

COc1ccc(C=O)c(N(C)C(=O)C(C)(C)C)c1
TGI (RXF 393 renal): > 100 µM
TGI (SNB-19 CNS): > 100 µM
TGI (HL-60(TB) leukemia): > 100 µM
TGI (OVCAR-8 ovarian): > 100 µM
TGI (HCT-15 colon): > 100 µM
TGI (M14 melanoma): > 100 µM
TGI (SN12C renal): > 100 µM
TGI (A549 NSCLC): > 100 µM
TGI (A498 renal): > 100 µM
TGI (SW-620 colon): > 100 µM

C[CH2][Sn]([CH2]C)([O]C(=O)c1cc(OC)c(OC)c(OC)c1)[O][Sn]([CH2]C)([CH2]C)[O]C(=O)c1cc(OC)c(OC)c(OC)c1
GI50 (RXF 393 renal): 12.4 µM
TGI (RXF 393 renal): 27.9 µM
GI50 (SNB-19 CNS): > 75.1 µM
TGI (SNB-19 CNS): > 100 µM
GI50 (HL-60(TB) leukemia): 35.1 µM
TGI (HL-60(TB) leukemia): > 100 µM
GI50 (OVCAR-8 ovarian): > 42.8 µM
TGI (OVCAR-8 ovarian): > 62.4 µM
GI50 (HCT-15 colon): 43 µM
TGI (HCT-15 colon): > 79 µM
GI50 (M14 melanoma): 32.5 µM
TGI (M14 melanoma): > 78.9 µM
GI50 (SN12C renal): 44 µM
TGI (SN12C renal): 99.4 µM
GI50 (A549 NSCLC): > 100 µM
TGI (A549 NSCLC): > 100 µM
GI50 (A498 renal): 25.6 µM
TGI (A498 renal): 43.9 µM
GI50 (SW-620 colon): 19.1 µM
TGI (SW-620 colon): 34.9 µM

CCOc1ccc(NC(=O)/C(=C/c2ccccc2)C(C)=O)cc1
TGI (RXF 393 renal): 19 µM
TGI (SNB-19 CNS): 24.9 µM
TGI (HL-60(TB) leukemia): 9.66 µM
TGI (OVCAR-8 ovarian): 43.1 µM
TGI (HCT-15 colon): 32.4 µM
TGI (M14 melanoma): 26 µM
TGI (SN12C renal): 35 µM
TGI (A549 NSCLC): 60.8 µM
TGI (A498 renal): 35.3 µM
TGI (SW-620 colon): 33.2 µM
